Measurements from patent publication US20030195168A1, “Therapeutic agents - III” (priority 2000, published 2003).

Columns and labels:
Format in all cases: cell-based
PKCβ = molecular target: T1, PKCβ (Homo sapiens, UniProt P05771); test: EGFP-PKC isoform translocation in HeLa cells
T1 construct: host or cells: HeLa cells
Description: (§1) Five EGFP-PKC isoforms (Clontech) were available for this experiment, enabling the screening of the three predominant PKC families (i.e. classical, novel and atypical PKCs). The members of the various PKC families are α, β, and γ (classical), θ (novel) and ζ (atypical).
(§2) HeLa cells were plated out in a 24-well plate containing coverslips and transfected with PKC isoforms fused to EGFP, using a commercially available effectine-transfection kit (QIAGEN, Pty. Ltd.). Cells were exposed to the transfection reagents for 16-24 hr. Subsequently, transfected cells were treated for one hour with TPA (100 ng/mL), bryostatin-1 (5 pg/mL), PEP003 (2.25 μg/mL; 5 μM) or PEP005 ([…]) 1.5 μM). Following treatment, cells were fixed on coverslips and mounted on glass slides. The slides were subsequently examined visually by fluorescence microscopy, photographed, and over 150 cells were counted/treatment/PKC isoform. Counted cells were classified according to the localisation of the PKC-EGFP fluorescence as either cytoplasmic or plasma membrane using ImagePro™ 4.1 (FIG. 5). […] The number of these cells was also counted. Results are presented as an average and standard deviation of percentages of cells (Table 1).

PKCγ = molecular target: T2, PKCγ (Homo sapiens, UniProt P05129); test: EGFP-PKC isoform translocation in HeLa cells
T2 construct: host or cells: HeLa cells
Description: as §1, §2

PKCζ = molecular target: T3, PKCζ (Homo sapiens, UniProt Q05513); test: EGFP-PKC isoform translocation in HeLa cells; settings: one hour, TPA 100 ng/mL, bryostatin-1 5 pg/mL, PEP003 2.25 μg/mL (5 μM), PEP005 670 μg/mL (1.5 μM)
T3 construct: host or cells: HeLa cells
T3 sequence (Q05513 1-592): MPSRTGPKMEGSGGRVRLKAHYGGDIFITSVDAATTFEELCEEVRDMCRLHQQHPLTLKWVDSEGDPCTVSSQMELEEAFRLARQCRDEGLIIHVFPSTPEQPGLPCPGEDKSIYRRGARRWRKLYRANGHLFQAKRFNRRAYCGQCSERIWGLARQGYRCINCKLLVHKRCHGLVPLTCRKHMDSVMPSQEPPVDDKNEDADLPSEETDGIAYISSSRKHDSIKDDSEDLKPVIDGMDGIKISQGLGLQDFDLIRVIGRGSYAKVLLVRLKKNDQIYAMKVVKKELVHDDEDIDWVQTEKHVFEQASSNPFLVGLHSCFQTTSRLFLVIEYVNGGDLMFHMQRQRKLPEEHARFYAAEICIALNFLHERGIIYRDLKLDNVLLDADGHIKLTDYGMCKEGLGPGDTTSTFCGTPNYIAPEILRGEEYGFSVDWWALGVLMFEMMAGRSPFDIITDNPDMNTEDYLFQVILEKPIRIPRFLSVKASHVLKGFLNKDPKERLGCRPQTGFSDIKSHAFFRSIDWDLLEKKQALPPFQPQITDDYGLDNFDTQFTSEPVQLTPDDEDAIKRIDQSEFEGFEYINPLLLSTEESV
Description: as §1, §2

PKCθ = molecular target: T4, PKCθ (Homo sapiens, UniProt Q04759); test: EGFP-PKC isoform translocation in HeLa cells; settings: one hour, TPA 100 ng/mL, bryostatin-1 5 pg/mL, PEP003 2.25 μg/mL (5 μM), PEP005 670 μg/mL (1.5 μM)
T4 construct: host or cells: HeLa cells
Description: as §1, §2

[1] = system: Peripheral blood mononuclear cells (PBMC); test: Respiratory burst (H2O2) in PBMC, DCFH-DA flow cytometry; settings: 15 min at 37° C.; granulocytes, monocytes, lymphocytes
Description: Experiments were also carried out using 2′,7′-dichlorofluorescein diacetate (DCFH-DA) to measure the production of H2O2.(J P Robinson, Oxidative burst methods, in Handbook of Flow Cytometry Methods, Wiley-Liss Inc, pp147-149, 1993). H2O2 oxidizes the non-fluorescent probe (DCFH-DA) to a fluorescent probe that can then be detected by a flow cytometer. Peripheral blood mononuclear cells (PBMC) were extracted from a donor blood sample by lysis of heparinized blood and used in a suspension of 1×10^6/mL of phosphate buffer, pH 7.3. The cells were then incubated with DCFH-DA (1 μL/mL of 20 mM stock) for 15 minutes to allow it to be taken up and trapped by hydrolysis with cellular esterases. The cells were then stimulated by test compounds for 15 min at 37° C. Controls included in the experiment were unloaded control (cells with no DCFH-DA) and loaded control (cells with DCFH-DA, but no stimulation). These were used to monitor the non-specific oxidation of unstimulated cells. The cells were then analyzed on the flow cytometer (excitation at 488 nm, emission at 525±20 nm), gating each sample for individual cell populations-granulocytes, monocytes and lymphocytes (Table 3).

[2] = one hour, TPA 100 ng/mL, bryostatin-1 5 pg/mL, PEP003 2.25 μg/mL (5 μM), PEP005 670 μg/mL (1.5 μM)

T1 sequence (P05771 whole entry, species assumed, canonical isoform): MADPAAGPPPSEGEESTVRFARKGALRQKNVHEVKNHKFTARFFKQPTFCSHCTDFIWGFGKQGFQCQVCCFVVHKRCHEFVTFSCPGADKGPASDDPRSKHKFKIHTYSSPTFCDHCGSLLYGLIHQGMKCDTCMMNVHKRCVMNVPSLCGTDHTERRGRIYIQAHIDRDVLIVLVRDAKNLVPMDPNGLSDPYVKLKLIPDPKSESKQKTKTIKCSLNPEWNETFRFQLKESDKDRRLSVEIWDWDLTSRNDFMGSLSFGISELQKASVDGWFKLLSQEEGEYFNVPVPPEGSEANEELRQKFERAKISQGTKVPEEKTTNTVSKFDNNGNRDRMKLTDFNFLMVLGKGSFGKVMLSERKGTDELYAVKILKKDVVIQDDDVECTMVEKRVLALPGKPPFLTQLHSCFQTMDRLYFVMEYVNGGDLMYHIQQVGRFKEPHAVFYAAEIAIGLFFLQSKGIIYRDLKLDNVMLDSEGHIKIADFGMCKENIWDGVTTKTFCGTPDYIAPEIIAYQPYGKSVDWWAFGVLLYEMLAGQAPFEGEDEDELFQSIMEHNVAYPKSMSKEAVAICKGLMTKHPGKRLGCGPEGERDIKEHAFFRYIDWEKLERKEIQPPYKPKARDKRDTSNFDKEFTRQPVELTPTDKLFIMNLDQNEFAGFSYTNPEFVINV
T4 sequence (Q04759 whole entry, canonical isoform): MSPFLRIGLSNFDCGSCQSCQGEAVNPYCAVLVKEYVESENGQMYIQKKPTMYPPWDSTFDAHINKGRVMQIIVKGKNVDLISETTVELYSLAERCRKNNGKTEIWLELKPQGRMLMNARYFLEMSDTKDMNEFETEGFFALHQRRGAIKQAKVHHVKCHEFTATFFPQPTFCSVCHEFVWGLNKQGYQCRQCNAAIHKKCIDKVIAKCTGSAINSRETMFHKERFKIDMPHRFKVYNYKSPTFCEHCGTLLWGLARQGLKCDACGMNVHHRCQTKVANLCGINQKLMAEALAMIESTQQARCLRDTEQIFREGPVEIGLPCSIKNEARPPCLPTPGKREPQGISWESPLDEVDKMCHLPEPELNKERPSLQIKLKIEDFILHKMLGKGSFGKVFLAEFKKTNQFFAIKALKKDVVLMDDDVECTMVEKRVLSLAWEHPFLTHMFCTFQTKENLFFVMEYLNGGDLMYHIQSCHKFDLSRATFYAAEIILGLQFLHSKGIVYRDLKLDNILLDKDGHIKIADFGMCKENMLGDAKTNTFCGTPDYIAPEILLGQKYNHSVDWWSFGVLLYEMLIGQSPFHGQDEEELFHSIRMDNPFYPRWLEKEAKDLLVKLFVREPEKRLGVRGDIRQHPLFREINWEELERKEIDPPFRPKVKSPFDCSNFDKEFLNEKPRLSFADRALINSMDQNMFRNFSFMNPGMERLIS

Compound: CCCCCCCCCCCCCC(=O)O[C@@H]1[C@@H](C)[C@@]2(O)[C@@H](C=C(CO)C[C@]3(O)C(=O)C(C)=C[C@@H]23)C2C(C)(C)[C@@]21OC(C)=O (single isomer, unassigned) [TPA]
- number of PKCβ transfected cells with Golgi-like fluorescence (PKCβ; one hour treatment): increase in Golgi-Tike fluorescence
- translocation of PKCβ to the plasma membrane (PKCβ; [2]): translocated from the cytoplasm to the plasma membrane
- number of PKCγ transfected cells displaying Golgi-like fluorescence (PKCγ; one hour treatment): increase in the number of cells displaying Golgi-like fluorescence
- translocation of PKCγ to the plasma membrane (PKCγ; [2]): translocated from the cytoplasm to the plasma membrane
- translocation of PKCζ (PKCζ): fail to induce translocation
- translocation of PKCθ (PKCθ): translocated
- induction of a respiratory burst (H2O2, DCFH-DA) [1]: respiratory burst seen
